Drawing on ChEMBL document CHEMBL1129656, “A study of the active site of influenza virus sialidase: an approach to the rational design of novel anti-influenza drugs” (J Med Chem, 1996), this text covers Ki for five molecules.

pKi: −log10 of the molar value.

The nature of the test: Compound was tested for the inhibition of influenza virus sialidase using 2'-(4-methylumbelliferyl)-N-acetylneuraminic acid substrate. Details: species or system unidentified influenza virus.
The term pKi denotes −log10 of the Ki, conventionally taken in molar units. A higher pKi goes with a small Ki. In turn, `CC(=O)NC1C(O)CC(O)(C(=O)O)OC1[C@H](O)[C@H](O)CO` (stereo not given in full) had a pKi of 3.00.

As for `CC(=O)N[C@@H]1C(NC(=N)N)C=C(C(=O)O)OC1[C@H](O)[C@H](O)CO` (stereo not given in full), the negative-log Ki (pKi) is 10.52. Compared with the last molecule, the pKi is 7.52 log units higher.

With `CC(=O)NC1C(O)C=C(C(=O)O)OC1[C@H](O)[C@H](O)CO` (stereo not given in full), the negative-log Ki (pKi) was 5.40.

`CC(=O)N[C@H]1[C@H]([C@H](O)[C@H](O)CO)OC(C(=O)O)=C[C@H]1N` gave a pKi of 7.40. This pKi lies 2.00 log units higher than the previous one.

`CC(=O)N[C@@H]1C(N)C=C(C(=O)O)O[C@H]1[C@H](O)[C@H](O)CO` (single isomer, unassigned) showed a negative-log Ki (pKi) of 6.52. This pKi lies 0.88 log units lower than the previous one.
